The results in this text go back to patent publication US20240270762A1, “PENICILLIN-BINDING PROTEIN INHIBITORS” (priority 2021, published 2024).

Assay [1] deals with T1, A. baumannii PBP1a (Acinetobacter baumannii, UniProt A0ABX6CK30).
T1 sequence (A0ABX6CK30 1-851): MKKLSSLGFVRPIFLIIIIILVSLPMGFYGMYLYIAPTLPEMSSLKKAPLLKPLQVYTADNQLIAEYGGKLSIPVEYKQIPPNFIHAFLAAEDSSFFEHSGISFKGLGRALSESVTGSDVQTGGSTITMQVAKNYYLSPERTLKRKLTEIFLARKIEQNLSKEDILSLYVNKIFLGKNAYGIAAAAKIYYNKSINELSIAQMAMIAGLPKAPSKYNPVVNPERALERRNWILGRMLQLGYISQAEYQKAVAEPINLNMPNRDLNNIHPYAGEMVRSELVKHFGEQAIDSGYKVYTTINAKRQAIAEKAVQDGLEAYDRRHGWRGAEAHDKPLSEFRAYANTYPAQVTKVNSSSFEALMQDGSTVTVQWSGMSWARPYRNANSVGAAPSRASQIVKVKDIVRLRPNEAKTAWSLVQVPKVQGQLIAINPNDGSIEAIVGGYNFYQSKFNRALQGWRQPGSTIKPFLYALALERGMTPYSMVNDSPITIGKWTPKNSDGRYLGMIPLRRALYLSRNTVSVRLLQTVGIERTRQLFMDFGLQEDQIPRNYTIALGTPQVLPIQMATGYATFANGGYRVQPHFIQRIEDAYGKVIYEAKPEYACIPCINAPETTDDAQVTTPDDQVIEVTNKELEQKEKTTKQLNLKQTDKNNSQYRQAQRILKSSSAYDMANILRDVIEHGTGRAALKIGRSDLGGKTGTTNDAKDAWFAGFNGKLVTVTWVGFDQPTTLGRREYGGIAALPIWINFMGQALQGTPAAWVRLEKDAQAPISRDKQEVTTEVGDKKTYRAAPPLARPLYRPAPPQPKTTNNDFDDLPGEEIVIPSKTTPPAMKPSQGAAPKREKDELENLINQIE
As to the kind of experiment: Bocillin-FL competition binding via gel filtration, A. baumannii PBP1a. The conditions noted are these: competition binding assay using Bocillin-FL via gel filtration; read-out: A. baumannii PBP1a Potency. The procedure, abridged: (§1)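 Competitive equilibrium binding; reporter Bocillin-FL. PBP + inhibitor (titration) pre-incubated → Bocillin-FL, 15 min → gel filtration → fluorescence. EC50 from Hill fit of fraction bound vs [inhibitor].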

Assay [2] deals with A. baumannii PBP2 (Acinetobacter baumannii, UniProt D0C8Z9). As to the kind of experiment: Bocillin-FL competition binding via gel filtration, A. baumannii PBP2. The procedure, abridged:
as §1
On the technique in general: SEC sorts molecules by how far they enter the pores of the column.

Assay [3] deals with A. baumannii ATCC 19606. As to the kind of experiment: microbe, parasite or virus in culture. It is filed as cell-based. The following applies: Acinetobacter baumannii, ATCC19606, read-out: MIC, A. baumannii ATCC 19606.
The subject of assay [4] is A. baumannii CDC-0036. In words: microbe, parasite or virus in culture. It is filed as cell-based. The following applies: Acinetobacter baumannii, CDC0036, read-out: MIC, A. baumannii CDC-0036.
Assay [5] has as its system P. aeruginosa CDC-0110. In words: microbe, parasite or virus in culture. The following applies: Pseudomonas aeruginosa, CDC0110, read-out: Minimum inhibitory concentration, P. aeruginosa CDC-0110. In kind it is cell-based.

≈ marks a conversion by molar mass, not a printed value. Some results are limits rather than exact numbers.

A. baumannii PBP2, sequence (D0C8Z9 whole entry): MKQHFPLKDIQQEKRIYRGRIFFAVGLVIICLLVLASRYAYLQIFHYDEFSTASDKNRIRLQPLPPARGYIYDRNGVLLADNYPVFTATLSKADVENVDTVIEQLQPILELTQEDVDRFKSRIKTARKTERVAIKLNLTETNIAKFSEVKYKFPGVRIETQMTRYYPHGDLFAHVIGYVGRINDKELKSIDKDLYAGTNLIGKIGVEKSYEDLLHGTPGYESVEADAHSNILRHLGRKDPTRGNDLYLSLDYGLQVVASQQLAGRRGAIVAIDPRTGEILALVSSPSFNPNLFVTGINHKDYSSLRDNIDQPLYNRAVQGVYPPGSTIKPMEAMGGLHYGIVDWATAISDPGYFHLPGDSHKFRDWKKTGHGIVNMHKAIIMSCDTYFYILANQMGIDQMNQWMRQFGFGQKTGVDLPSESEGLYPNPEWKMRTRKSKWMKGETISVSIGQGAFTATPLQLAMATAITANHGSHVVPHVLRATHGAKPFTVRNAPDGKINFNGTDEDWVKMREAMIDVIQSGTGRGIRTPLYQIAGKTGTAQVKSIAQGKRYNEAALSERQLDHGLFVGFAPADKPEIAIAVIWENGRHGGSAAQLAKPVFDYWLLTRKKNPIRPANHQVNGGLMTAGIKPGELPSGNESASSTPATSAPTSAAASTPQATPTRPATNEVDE

For `O=C(NCCCN1CCN(C(=O)NC(C(=O)N[C@H]2Cc3ccc(F)c(C(=O)O)c3OB2O)c2cc(F)c(O)c(O)c2Cl)C(=O)C1=O)c1cc(F)ncc1F` (mixture of isomers) [Example 405], the EC50 in assay [1] and in assay [2] was 10 to 50 µM throughout. Also, the figures for the MIC in assay [3], in assay [4] and in assay [5] were < 1 µg/mL, 2 to 4 µg/mL and 2 to 4 µg/mL, respectively.
Turning to `O=C(NCCCN1CCN(C(=O)N[C@@H](C(=O)N[C@H]2Cc3ccc(F)c(C(=O)O)c3OB2O)c2cc(F)c(O)c(O)c2Cl)C(=O)C1=O)c1cc(F)nc(F)c1` (racemic) [Example 401], the figures for the EC50 in assay [1] and in assay [2] were < 10 µM and 10 to 50 µM, respectively. Further, the MIC is < 1 µg/mL in assay [3], 2 to 4 µg/mL (≈ 2.56 to 5.12 µM) in assay [4] and < 1 µg/mL in assay [5].
For the compound `O=C(NCCCN1CCN(C(=O)N[C@@H](C(=O)N[C@H]2Cc3ccc(F)c(C(=O)O)c3OB2O)c2cc(F)c(O)c(O)c2Cl)C(=O)C1=O)c1ccc(O)cc1F` (racemic) [Example 417], the EC50 in assay [1] was 10 to 50 µM; in assay [2] it was < 10 µM. In addition, the results for the MIC in assay [3], in assay [4] and in assay [5] were < 1 µg/mL, 2 to 4 µg/mL (≈ 2.57 to 5.14 µM) and 32 to 64 µg/mL (≈ 41.1 to 82.3 µM), respectively.
The matching figures for `O=C(NCCCN1CCN(C(=O)N[C@@H](C(=O)N[C@H]2Cc3ccc(F)c(C(=O)O)c3OB2O)c2cc(F)c(O)c(O)c2Cl)C(=O)C1=O)c1c(F)cc(O)cc1F` (racemic) [Example 420]: 10 to 50 µM, 10 to 50 µM, < 1 µg/mL, 2 to 4 µg/mL (≈ 2.51 to 5.03 µM) and < 1 µg/mL.
On the same counts, the results for `O=C(O)c1c(F)ccc2c1OB(O)[C@@H](NC(=O)[C@H](NC(=O)N1CCN(C3CCN(C(=O)Nc4ccc(O)cc4)CC3)C1=O)c1cc(F)c(O)c(O)c1Cl)C2` (single isomer, unassigned) [Example 468] are < 10 µM, < 10 µM, < 1 µg/mL, < 1 µg/mL and < 1 µg/mL.
For `O=C(NCCCN1CCN(C(=O)N[C@@H](C(=O)N[C@H]2Cc3ccc(F)c(C(=O)O)c3OB2O)c2cc(F)c(O)c(O)c2Cl)C(=O)C1=O)c1ccc(O)cc1Cl` (single isomer, unassigned) [Example 471], the EC50 in assay [1] and in assay [2] was < 10 µM in each case. Further, the values for the MIC in assay [3], in assay [4] and in assay [5] were < 1 µg/mL, 2 to 4 µg/mL (≈ 2.52 to 5.04 µM) and < 1 µg/mL, respectively.
As for `O=C(NCCCN1CCN(C(=O)N[C@@H](C(=O)N[C@H]2Cc3ccc(F)c(C(=O)O)c3OB2O)c2cc(F)c(O)c(O)c2Cl)C(=O)C1=O)c1cc(F)c(O)cc1F` (single isomer, unassigned) [Example 473], the EC50 in assay [1] and in assay [2] was < 10 µM throughout. For the same compound, the MIC is < 1 µg/mL in assay [3], 2 to 4 µg/mL (≈ 2.51 to 5.03 µM) in assay [4] and < 1 µg/mL in assay [5].
Regarding `O=C(NCCCS(=O)(=O)N1CCN(C(=O)NC(C(=O)N[C@H]2Cc3ccc(F)c(C(=O)O)c3OB2O)c2cc(F)c(O)c(O)c2Cl)C1=O)Nc1cccc(O)c1` (stereo partly drawn) [Example 277, (3R)-3-(2-(2-chloro-5-fluoro-3,4-dihydroxyphenyl)-2-(3-((3-(3-(3-hydroxyphenyl)ureido)propyl)sulfonyl)-2-oxoimidazolidine-1-carboxamido)acetamido)-7-fluoro-2-hydroxy-3,4-dihydro-2H-benzo[e][1,2]oxaborinine-8-carboxylic acid], the EC50 in assay [1] and in assay [2] was < 10 µM in each case. Moreover, the MIC in assay [3] is < 1 µg/mL; in assay [4] it was 2 to 4 µg/mL (≈ 2.47 to 4.93 µM); in assay [5], 8 to 16 µg/mL (≈ 9.87 to 19.7 µM).
For the compound `O=C(NCCN1CCN(C(=O)N[C@@H](C(=O)N[C@H]2Cc3ccc(F)c(C(=O)O)c3OB2O)c2cc(F)c(O)c(O)c2Cl)C1=O)Nc1ccc(O)cc1` [Example 279, (R)-3-((R)-2-(2-chloro-5-fluoro-3,4-dihydroxyphenyl)-2-(3-(2-(3-(4-hydroxyphenyl)ureido)ethyl)-2-oxoimidazolidine-1-carboxamido)acetamido)-7-fluoro-2-hydroxy-3,4-dihydro-2H-benzo[e][1,2]oxaborinine-8-carboxylic acid], the EC50 was < 10 µM in assay [1] and 10 to 50 µM in assay [2]. For the same compound, the MIC in assay [3], in assay [4] and in assay [5] was < 1 µg/mL throughout.
Take `O=C(NCCCN1CCN(C(=O)NC(C(=O)N[C@H]2Cc3ccc(F)c(C(=O)O)c3OB2O)c2cc(F)c(O)c(O)c2Cl)C1=O)c1ccc(O)cc1` (stereo partly drawn) [Example 280, (3R)-3-(2-(2-chloro-5-fluoro-3,4-dihydroxyphenyl)-2-(3-(3-(4-hydroxybenzamido)propyl)-2-oxoimidazolidine-1-carboxamido)acetamido)-7-fluoro-2-hydroxy-3,4-dihydro-2H-benzo[e][1,2]oxaborinine-8-carboxylic acid]: the EC50 in assay [1] and in assay [2] was 10 to 50 µM in each case. For the same compound, the MIC was < 1 µg/mL in assay [3], 2 to 4 µg/mL (≈ 2.73 to 5.47 µM) in assay [4] and 2 to 4 µg/mL (≈ 2.73 to 5.47 µM) in assay [5].
As to `O=C(NCCS(=O)(=O)N1CCN(C(=O)N[C@@H](C(=O)N[C@H]2Cc3ccc(F)c(C(=O)O)c3OB2O)c2cc(F)c(O)c(O)c2Cl)C1=O)Nc1ccncc1` [Example 290, (R)-3-((R)-2-(2-chloro-5-fluoro-3,4-dihydroxyphenyl)-2-(2-oxo-3-((2-(3-(pyridin-4-yl)ureido)ethyl)sulfonyl)imidazolidine-1-carboxamido)acetamido)-7-fluoro-2-hydroxy-3,4-dihydro-2H-benzo[e][1,2]oxaborinine-8-carboxylic acid], in assay [2], the EC50 is < 10 µM. In addition, the MIC in assay [3] was < 1 µg/mL; in assay [4] it was 2 to 4 µg/mL (≈ 2.56 to 5.12 µM); in assay [5], < 1 µg/mL.
On to `Cc1cc(C(=O)NCCCN2CCN(C(=O)NC(C(=O)N[C@H]3Cc4ccc(F)c(C(=O)O)c4OB3O)c3cc(F)c(O)c(O)c3Cl)C(=O)C2=O)c(F)cn1` (stereo partly drawn) [Example 301, (3R)-3-(2-(2-chloro-5-fluoro-3,4-dihydroxyphenyl)-2-(4-(3-(5-fluoro-2-methylisonicotinamido)propyl)-2,3-dioxopiperazine-1-carboxamido)acetamido)-7-fluoro-2-hydroxy-3,4-dihydro-2H-benzo[e][1,2]oxaborinine-8-carboxylic acid], for which, in assay [1], the EC50 was in the range of 10 to 50 µM. Further, the MIC in assay [3] is < 1 µg/mL; in assay [4], 2 to 4 µg/mL (≈ 2.57 to 5.15 µM); in assay [5], < 1 µg/mL.
For `O=C(NCCCN1CCN(C(=O)N[C@@H](C(=O)N[C@H]2Cc3ccc(F)c(C(=O)O)c3OB2O)c2cc(F)c(O)c(O)c2Cl)C(=O)C1=O)c1cccc(O)c1Cl` [Example 303, (R)-3-((R)-2-(4-(3-(2-chloro-3-hydroxybenzamido)propyl)-2,3-dioxopiperazine-1-carboxamido)-2-(2-chloro-5-fluoro-3,4-dihydroxyphenyl)acetamido)-7-fluoro-2-hydroxy-3,4-dihydro-2H-benzo[e][1,2]oxaborinine-8-carboxylic acid], in assay [1], the EC50 is < 10 µM. The MIC in assay [3], in assay [4] and in assay [5] was < 1 µg/mL throughout.
On to `O=C(NCCCN1CCN(C(=O)NC(C(=O)N[C@H]2Cc3ccc(F)c(C(=O)O)c3OB2O)c2cc(F)c(O)c(O)c2Cl)C(=O)C1=O)c1ccc(O)c(F)c1` (stereo partly drawn) [Example 304, (3R)-3-(2-(2-chloro-5-fluoro-3,4-dihydroxyphenyl)-2-(4-(3-(3-fluoro-4-hydroxybenzamido)propyl)-2,3-dioxopiperazine-1-carboxamido)acetamido)-7-fluoro-2-hydroxy-3,4-dihydro-2H-benzo[e][1,2]oxaborinine-8-carboxylic acid], for which the EC50 in assay [1] was < 10 µM. In addition, the MIC is < 1 µg/mL in assay [3], 2 to 4 µg/mL (≈ 2.57 to 5.14 µM) in assay [4] and < 1 µg/mL in assay [5].
Compound `O=C(NCCCN1CCN(C(=O)NC(C(=O)N[C@H]2Cc3ccc(F)c(C(=O)O)c3OB2O)c2cc(F)c(O)c(O)c2Cl)C(=O)C1=O)c1ccnc(F)c1` (stereo partly drawn) [Example 466, (3R)-3-(2-(2-chloro-5-fluoro-3,4-dihydroxyphenyl)-2-(4-(3-(2-fluoroisonicotinamido)propyl)-2,3-dioxopiperazine-1-carboxamido)acetamido)-7-fluoro-2-hydroxy-3,4-dihydro-2H-benzo[e][1,2]oxaborinine-8-carboxylic acid] displayed an EC50 in assay [2] of 10 to 50 µM. In addition, the MIC in assay [3] was < 1 µg/mL; in assay [4], 2 to 4 µg/mL (≈ 2.62 to 5.24 µM); in assay [5], < 1 µg/mL.
